{"source": "patent US20230381322A1", "about": "“METHOD FOR PREPARING A DNA NETWORK WITH CONTROLLED CRYSTAL STRUCTURE AND A METHOD FOR INJECTING DRUGS USING THE DNA NETWORK” (UIF (University Industry Foundation), Yonsei University, priority 2022, published 2023)", "key": {"[1]": {"test_system": "HeLa cell-implanted BALB/c nude mice xenografts", "experiment": "Localized anticancer therapy, intratumoral injection", "assay_type": "in vivo", "settings": "single intratumoral injection, 2.5 mg/kg Dox, day 8", "description": "All animal experiments were performed in compliance with the relevant laws and institutional guidelines of the Korea Institute of Science and Technology (KIST; KIST-2020-108). To evaluate the anticancer effects of pDNets, tumor-bearing BALB/c nude mice were prepared by injecting a suspension of 5×10^6 cells per mouse. The mice were divided into five groups (n=5): (1) PBS, (2) free DOX, (3) pDNet-H, (4) pDNet-M, and (5) pDNet-L. Each mouse was injected intratumorally with 2.5 mg/kg Dox when the size of the tumors was approximately 100-150 mm ^3. The tumor volumes and body weights of each mouse were observed every 2 days for 8 days. The length (L) and width (W) of the tumors were measured, and tumor volumes (V) were calculated using the following formula: V=L×W^2×0.52. To assess the biocompatibility of the pDNets, mice in each group were sacrificed after 8 days and the major organs were excised. To assess the biosafety of pDNets, the excised organs were paraffin-embedded and cut into 5 μm sections. Hematoxylin and eosin (H&E) staining was performed to observe the histopathological changes."}, "[2]": {"test_system": "HeLa cells", "experiment": "Cytotoxicity of released Dox, MTT assay", "assay_type": "cell-based", "settings": "HeLa cells treated 24 h with Dox-released incubation solutions of pH 5.0, 6.4, 7.4", "description": "Cell adhesion efficiencies were evaluated by incubating GelRed-labeled pDNets in cell media containing 2.5×10^5 Hela or NIH/3T3 cells for an hour. After the incubation, Calcein AM was used to stain the attached cells and the pDNets were washed three times with PBS. After staining, CLSM was used to visualize the respective fluorescence to determine the number of cells attached to each pDNet/mm^2. Evaluation of intracellular delivery of released Dox from pDNets was performed by loading pDNets with 20 nmol Dox. Dox-loaded pDNets were incubated in a pH 5.0, 6.4, and […] PBS solution for 32 h, which were then diluted 1, 2, and 4-fold with Dulbecco's modified Eagle's medium and used to treat 1×10^5 HeLa cells for 2 h. As a positive control, 20 nmol free Dox diluted similarly was used for treatment at final concentrations of 2, 4, and 8 μM to represent complete release of Dox. After the incubation, cell nuclei were stained with Hoechst and the intracellular delivery of Dox was compared using CLSM. […] After 24 h of treatment, cell viability was quantified using the MTT assay (Roche Diagnostics, Mannheim, Germany) following the manufacturer's protocol. […] The resulting formazan salts were dissolved by adding dimethyl sulfoxide, and the absorbance was measured at 570 nm using a multi-label microplate reader (Victor X5; Perkin Elmer)."}}, "data": [{"compound": "COc1cccc2c1C(=O)c1c(O)c3c(c(O)c1C2=O)C[C@@](O)(C(=O)CO)C[C@@H]3O[C@H]1C[C@H](N)[C@H](O)[C@H](C)O1", "note": "[free Dox, doxorubicin]", "values": [{"measurement": "tumor volume reduction relative to the control group", "setting": "[1]", "value": "~35", "unit": "%"}, {"measurement": "tumor weight reduction relative to the control group", "setting": "[1]", "value": "~35", "unit": "%"}, {"measurement": "in vitro therapeutic effect (cell viability, MTT)", "setting": "[2]", "value": "most effective in vitro"}]}]}
